Reference: patent publication US20250134866A1, “COMMENSAL SIGNALLING COMPOUNDS FOR TREATING OR PREVENTING MICROBIOME DYSFUNCTION IN THE SKIN OR MOUTH” (priority 2022, published 2025)

Assays:
P. aeruginosa ATCC 27853 = assay: Growth of P. aeruginosa culture in presence of EGT (optical density, 24 hours); assay type: cell-based; conditions: 0.001%, 0.05% or 0.1% (w/v) added upon inoculation, MH media, 37 C, OD monitored 24 hours
Protocol: (§1) The growth of two bacterial strains, one commensal containing EGT-synthetic genes (P. aeruginosa ATCC 27853) and one pathogen lacking such genes (S. Aureus ATCC 6538) were compared in the presence and absence of EGT. Each strain was adjusted to an OD600 of 0.2 in MH culture media, inoculated into 96-well plates and incubated at 37 C. The growth of the cultures were monitored for optical density for 24 hours. The S. aureus and P. aeruginosa cultures reached stationary phase after 15 and 2 hours, respectively. Addition of L-ergothioneine (99+% purity) at 0.001%, 0.05% or 0.1% (w/v) upon inoculation had no effect on the growth rate of either culture.

IL-8 = assay: Release of inflammatory cytokine IL-8 by human keratinocytes after treatment with S. aureus; assay type: cell-based; conditions: 24 hours pre-treatment, keratinocytes infected with S. aureus at multiplicity of infection of 10, 24 hours
Protocol: The present example examines the release of the inflammatory cytokine IL-8 by human keratinocytes after treatment with S. aureus. Although S. aureus is associated with atopic dermatitis, IL-8 […] as inflammatory cytokine in this disease (Li and Yosipovitch, 2020).
Infection of a keratinocyte culture at a multiplicity of infection of 10 increased the amount of IL-8 from low levels in uninfected cultures to an increase of 6,044% in 24 hours in infected cultures. Pre-treatment of the keratinocyte cultures with EGT for 24 hours reduced the release of IL-8 by 61% for 0.005% EGT, 75% for 0.01% EGT, and 82% for 0.05% EGT.

S. Aureus ATCC 6538 = assay: Growth of S. aureus culture in presence of EGT (optical density, 24 hours); assay type: cell-based; conditions: 0.001%, 0.05% or 0.1% (w/v) added upon inoculation, MH media, 37 C, OD monitored 24 hours
Protocol: as §1

[1] = Skin redness of atopic dermatitis lesions, topical formula, dermospectrophotometer; assay type: in vivo, human; conditions: placebo 9%
Protocol: The present example tests the effect of EGT on skin inflammation in subjects with atopic dermatitis lesions.
Three topical formulas were prepared using a commercial formulation of EGT called MC-2, which is a granulated preparation of EGT mixed into mannitol. One formulation was a placebo, with only mannitol added. The second was a low dose formula containing EGT in the form of MC-2 added to a final concentration of 0.005% EGT (w/w). The third was a high dose formulation containing EGT in the form of MC-2 added to a final concentration of 0.05% EGT (w/w).
Subjects with patches of atopic dermatitis were recruited to the study and 16 were assigned to each of three arms: placebo, low dose EGT and high dose EGT. The subjects were 9 males and 39 females, representing each Fitzpatrick Skin Type (I-VI) in age range from 21 to 73 years old. The redness of the skin lesion was measured using a dermospectrophotometer and compared to adjacent uninvolved skin to determine a redness measure. The subjects used the test formula on the skin lesion twice a day for 4 weeks. The lesions were again measured with a dermospectrophotometer.

SMILES: C[N+](C)(C)[C@@H](Cc1c[nH]c(=S)[nH]1)C(=O)[O-] [EGT]
- effect on the growth rate of culture (P. aeruginosa ATCC 27853): no effect
- reduction of release of IL-8 (IL-8; 0.005% EGT): 61%
- reduction of release of IL-8 (IL-8; 0.01% EGT): 75%
- reduction of release of IL-8 (IL-8; 0.05% EGT): 82%
- effect on the growth rate of culture (S. Aureus ATCC 6538): no effect
- redness reduction of skin lesion ([1]; high dose topical formula, 0.05% EGT (w/w) as MC-2, twice a day for 4 weeks): 50%
- redness reduction of skin lesion ([1]; low dose topical formula, 0.005% EGT (w/w) as MC-2, twice a day for 4 weeks): 66%
